Experimental data published in publication PMC3303611 (Journal of Medicinal Chemistry, 2012).
Read-outs that look alike come from different tables or passages of the source.

Columns and labels:
H3 receptor = H3 receptor (Homo sapiens, UniProt Q9Y5N1); experiment: GTP-γ-S assay performed by the Psychoactive Drug Screening Program; type: biochemical
brain H3 receptors = experiment: PET imaging of [18F]9 in monkey; type: in vivo, rhesus monkey; conditions: [18F]9 Vt, two monkeys, ciproxifan pretreatment
rat H3 receptors = conditions: known, ref not given; cited from earlier work
human H3 receptors = conditions: human vs rat H3; known, ref not given; cited from earlier work

Chain of H3 receptor (Q9Y5N1 whole entry): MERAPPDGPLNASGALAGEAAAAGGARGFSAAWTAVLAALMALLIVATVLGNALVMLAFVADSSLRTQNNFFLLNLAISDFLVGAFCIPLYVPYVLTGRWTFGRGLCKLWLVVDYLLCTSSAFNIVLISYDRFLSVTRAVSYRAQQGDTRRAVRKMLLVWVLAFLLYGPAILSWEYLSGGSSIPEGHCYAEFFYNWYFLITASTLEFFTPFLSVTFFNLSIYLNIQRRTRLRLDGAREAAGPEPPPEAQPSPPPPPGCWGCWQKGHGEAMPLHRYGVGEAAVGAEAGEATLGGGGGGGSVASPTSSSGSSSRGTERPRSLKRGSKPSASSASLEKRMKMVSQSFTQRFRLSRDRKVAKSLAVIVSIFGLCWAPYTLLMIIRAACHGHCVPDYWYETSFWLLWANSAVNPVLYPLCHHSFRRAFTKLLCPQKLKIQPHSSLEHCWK

## C[C@@H]1CCCN1CCc1cc2cc(C(=O)c3ccc(F)cc3)ccc2o1 [Compound 9, (R)-(2-(2-(2-methylpyrrolidin-1-yl)ethyl)benzofuran-5-yl)(4-fluorophenyl)methanone]
H3 receptor
  intrinsic activity: inverse agonists

## C[C@@H]1CCCN1CCc1cc2cc(C(=O)c3ccc([N+](=O)[O-])cc3)ccc2o1 [Compound 12, (R)-(2-(2-(2-Methylpyrrolidin-1-yl)ethyl)benzofuran-5-yl)(4-nitrophenyl)methanone]
H3 receptor; GTP-γ-S assay, Psychoactive Drug Screening Program
  intrinsic activity: inverse agonists

## O=C(c1ccc(OCCCc2c[nH]cn2)cc1)C1CC1 [ciproxifan]
Brain H3 receptors; Cerebellum
  Mean Vt decrease: -26%
Brain H3 receptors; Frontal cortex
  Mean Vt decrease: -34%
Brain H3 receptors; Hippocampus
  Mean Vt decrease: -33%
Brain H3 receptors; Striatum
  Mean Vt decrease: -26%
Brain H3 receptors; Thalamus
  Mean Vt decrease: -33%
Rat H3 receptors
  Ki: 0.51 nM
Human H3 receptors
  lower affinity for human H3 receptors than for rat H3 receptors: over 100 fold
